Tests used:
[1] = tested on: periodontal disease and bone loss (intrabony defects around second and fourth premolars); experiment: Minipig periodontal disease model: periodontal flap surgery with a single application, μCT and conventional radiographic imaging; assay type: in vivo, minipigs (Hanford)
Experimental: The Institutional Animal Care Committee at the Forsyth Institute and PARF, Inc reviewed and approved the animal protocol prior any study activities. Two adult (18-24 months old) female minipigs (Hanford) were purchased and acclimatized for at least 7 days before any procedures. All surgical and follow up procedures and housing throughout the study duration (about 6 months including disease induction period) were performed at an animal and surgical facility at PARF, Inc.
Anesthesia and surgical procedures were conducted as described in Hasturk H, Kantarci A, Ghattas M, Schmidt M, Giordano R, Ashman A, Diekwisch T, Van Dyke T E. The Use of Light/Chemically-Hardened Poly-Methyl-Methacrylate, Poly-Hydroxyl-Ethyl-Methacrylate and Calcium Hydroxide Graft Material in Combination with Polyanhydride around Implants in Minipigs: Part I: Immediate Stability and Function. J Periodontol. 2011 September; 82(9):1339-1352, which is incorporated by reference in its entirety herein. Briefly, minipigs were premedicated with Telazol (4-6 mg/kg IM) and xylazine (2.2 mg/kg IM) and were maintained by 3-4% isoflurane for induction and 0.5-2% isoflurane for maintenance. Each pig was anesthetized for approximately two hours during ligature placement and intraoral photographs. Endotracheal intubation was performed whenever the pig was fully anesthetized. Periodontal disease and bone loss were induced by creating intrabony defects using burs and ligatures in all four quadrants around the same teeth (second and fourth premolars) (FIG. 2A). After ligature placement, animals were fed with soft diet to stimulate plaque accumulation around ligatures for 6 weeks.
Oral examination, including digital photographs, were repeated at 2 and 4 weeks and ligatures were removed at 6 weeks. The sites were left untreated for about 38 days to stabilize the periodontal disease and bone loss obtained and to eliminate the self healing aspect of the bone defects. Accordingly, the defects were chronically created for the baseline treatments (FIG. 2B).
At Day 0 (baseline), the minipigs were anesthetized as described above. […]

[2] = tested on: acute inflammation (PMN infiltration, pro-inflammatory cytokines); conditions: mouse model of acute inflammation, cited from earlier work
[3] = tested on: periodontitis and inflammation-induced bone destruction; conditions: rabbit periodontitis; cited from earlier work

Compound	number of applications after which oral osteogenesis effects were observed ([1]; applied to debrided chronic periodontal lesion at periodontal flap surgery)	bone regeneration by conventional radiographic imaging of teeth ([1]; surgery plus 9,12 benzo LXA4 vs surgery alone (FIG. 3))	bone osteogenesis by micro-computed tomography (μCT) imaging of teeth ([1]; surgery plus 9,12 benzo LXA4 vs surgery alone, 0.1-1 μM, light gel, applied at flap surgery, bone covering root notches (FIG. 3))	levels of pro-inflammatory cytokines ([2]; in vivo)	polymorphonuclear leukocyte (PMN) infiltration ([2]; in vivo)	anti-inflammatory properties [2]	bone loss [3]	inflammation [3]	tissue regeneration [3]
9,12 benzo-LXA4 [9,12, benzo LXA4]	observed after only a single application	regenerated bone to essentially pre-disease levels	induction of bone osteogenesis following LXA4 treatment was observed	significantly reducing	significantly reducing	potent anti-inflammatory properties			
CC[C@@H](O)/C=C/C=C\C[C@@H](O)/C=C/C=C/C=C\[C@@H](O)CCCC(=O)O [resolvin E1 (RVE1), resolvin E1]							protects from bone loss	reduces inflammation	stimulates tissue regeneration

From US11896571B2, “Methods for increasing oral osteogenesis using lipoxin A4 (LXA4) and its analogs” (Forsyth Dental Infirmary for Children, priority 2013, dated 2024)
